Source: US20140315857A1, “N- (4 -QUINOLINYLMETHYL) SULFONAMIDE DERIVATIVES AND THEIR USE AS ANTHELMINTICS” (E I DU PONT DE NEMOURS AND COMPANY, priority 2011, published 2014)

Legend:
Haemonchus contortus [1] = assay: Test B: Haemonchus contortus burdens in infected mice after oral gavage; format: in vivo; settings: oral gavage 10.0 mg/kg body weight on day 0, Haemonchus contortus burdens on day 5 relative to vehicle-dosed controls
Method: For evaluating control of the barber pole worm (Haemonchus contortus), mice were each infected orally with 600 L3 Haemonchus contortus larvae on Day −3. On day 0, the infected mice were gavaged with a test compound (n=1) in a propylene glycol/glycerol formal solution at the rate of 10.0 mg/kg body weight. On day 5, the mice were euthanized and evaluated for Haemonchus contortus burdens relative to the vehicle-dosed controls. The range of means for the number of Haemonchus contortus in the various tests in which these compounds were studied was 92-184.

Haemonchus contortus [2] = assay: Test A: control of barber pole worm, eggs in culture media, mortality at L3 stage; format: cell-based; settings: 120 h
Method: For evaluating control of the barber pole worm (Haemonchus contortus), a test compound was solubilized in culture media (Earle's Balanced Salt Solution) containing Haemonchus contortus eggs to obtain a final test compound concentration of 2.0 ppm. The test unit was evaluated for mortality 120 hours later after which the eggs had hatched and had advanced to the L3 stage.

melting point [°C] | Structure (SMILES) | % Efficacy (Haemonchus contortus [1]) [%] | mortality at 2 ppm (Haemonchus contortus [2]) [%]
 | O=S(=O)(NCc1ccnc2ccccc12)c1ccc(C#CC2CC2)cc1 [Compound 2, 4-(2-cyclopropylethynyl)-N-(4-quinolinylmethyl)benzenesulfonamide] | 60 | 100
 | O=S(=O)(NCc1ccnc2ccccc12)c1ccc(C#Cc2ccccn2)cc1 [Compound 4, 4-[2-(2-pyridinyl)ethynyl]-N-(4-quinolinylmethyl)benzenesulfonamide] | 89 | 100
 | O=S(=O)(NCc1ccnc2ccccc12)c1ccc(C#CC2CC2)s1 [Compound 15, 5-(2-cyclopropylethynyl)-N-(4-quinolinylmethyl)-2-thiophenesulfonamide] | 93 | 100
193 to 195 | O=S(=O)(NCc1ccnc2ncccc12)c1ccc(C#CC2CC2)cc1 [Compound 48, 4-(2-cyclopropylethynyl)-N-(1,8-naphthyridin-4-ylmethyl)-benzenesulfonamide] |  | 
